In patent publication US11723907B2, “Anti-aging compounds” (THE CLEVELAND CLINIC FOUNDATION, priority 2017, dated 2023):

Tests used:
[1] = Modified Ames test for genotoxic effect; conditions: 4NQO positive control
Source text: (§1) FIGS. 1A-1I provide graphs and images showing a new high throughput method for simultaneous detection of senescence associated SAβG activity and ATP in culture of normal pre-aged cells identified two potent anti-aging scaffolds. (A). General schema of HTS. (B). […] (C). Structures and corresponding tautameric forms of lead compounds. (D) Evaluation of possible genotoxic effect of experimental drugs in modified Ames test. 4-Nitroquinoline 1-oxide (4NQO) was used as a positive control. […] The general schema of RLS measurement in different cell types. (F) VA and N2N1 considerably extend RLS of normal human fibroblasts (NHDF) and stromal cells isolated from human normal bone marrow. (G). […] (I). Upper panel: Morphological appearance of NHDF at late passages with or without treatment. Lower panel: Cells were also fixed in para-formaldehyde and stained to detect SAβG.

[2] = tested on: hematopoietic colony assays; test: Hematologic toxicity in hematopoietic colony assays; assay type: cell-based
Source text: They have first applied them in a battery of tissue culture assays measuring i) exhaustion kinetics of HSC and ii) hematologic toxicity. […] The inventors then focused our studies on HSC performance measured in CFU assay and in LTC-IC (FIG. 2), the best in vitro surrogate assay for the quantification and functional assessment of HSCs.

[3] = tested on: fibroblasts derived from Werner syndrome patient; test: RLS of Werner syndrome fibroblasts; assay type: cell-based, human
Source text: as §1

[4] = tested on: HSC/progenitors from normal bone marrows; test: CFU and LTC-IC assays, normal bone marrow; assay type: cell-based, human; conditions: for colonies formation: tissue culture derived from normal bone marrows; for total number of cells at end of 1st part of LTC-IC assay: versus untreated samples
Source text: FIGS. 2A-2G provide graphs and images showing N2N1 and VA support HSC/progenitors populations under pressure of differentiation and tissue culture stress in vitro and in vivo. General schema of CFU (A) and LTC-IC assays (B). […] Representative result of three NBM is shown. (D) The morphology of cells at the end of 1st part of LTC-IC assay is shown. The total number of cells at this step of experiment was always larger in the samples treated with experimental drugs. (E) Treatment of mice with N2N1 promotes maintenance of normal HSC in vivo. Competitive repopulation assay performed on CD45.2 mice treated with N2N1. Summary of four animals, three hematopoietic tissues. […] Representative result of three patients is shown.
While these compounds may have many applications, the inventors have focused on potential usage of these agents to improve the function of HSC in BMF. They have first applied them in a battery of tissue culture assays measuring i) exhaustion kinetics of HSC and ii) hematologic toxicity. […] The inventors then focused our studies on HSC performance measured in CFU assay and in LTC-IC (FIG. 2), the best in vitro surrogate assay for the quantification and functional assessment of HSCs. The potential positive impact of identified pro-survival catalysts on viability and propagation of HSC was evaluated in methylcellulose cultures, classic CFU assay, long-term culture colony-initiating (LTC-IC) cell assays (FIGS. 2A, B and C) and competitive repopulation assay based on CD45.1/2 mouse model (FIG. 2E).
As a starting point for clinical application of identified redox catalysts, the inventors tested them on their ability to stimulate hematopoiesis in normal and damaged bone marrow cells, isolated from the patients with severe AA (FIGS. 2C and F). Very promising data was obtained, confirming the original idea that these small molecules can support propagation of both normal HSC and stem cells presented in damaged or disease bone marrow.

[5] = tested on: mitochondrial respiration rate; test: Mitochondrial respiration and glycolysis on Seahorse apparatus; assay type: cell-based; conditions: within few minutes or even hours after addition
Source text: Based on results obtained on tissue cultured cells (increased RLS) and an increase in the numbers of HSC surrogate cells (LTC-IC or CFU), the inventors set their future goal to develop a novel pharmacological treatment for AA patients and potentially for other BMF. They have examined the most prominent features of cellular aging: telomere shortening, mitochondrial dysfunction or decline in respiratory capacity and shift in intracellular redox balance toward more oxidized environment. […] The only persistent effect of VA was considerable reduction in global protein disulfide bonds (up to 30%) detected by Elman's reagent or direct labelling of reduced sulfhydryl groups with biotin-switch assay (FIG. 3A). That brought the reductive hypothesis to the inventors' attention. The redox potential is controlled by sophisticated set of diverse enzymes and this system is fed from generation of NADPH by multiple hydrogenases (FIG. 3B). Among them, the glucose-6-phosphate dehydrogenase (G6P) is most important, because it controls the rate limiting step of pentose phosphate pathway. The other important dehydrogenases are isocytrate dehydrogenases (cytoplasmic and mitochondrial, IDH1/2) and 6-phosphogluconate dehydrogenase (6PG). The next anti-oxidant cellular protection layer is thioredoxin and glutathione systems (FIG. 3B). The first one is composed of thioredoxin reductase (TrxR) and thioredoxin. […]

NHDF = test: SAβG staining of NHDF at late passages; assay type: cell-based, human
Source text: as §1
The inventors developed a new high-throughput screening (HTS) method for identification of anti-aging drugs (FIG. 1). The novel method was specifically designed for simultaneous detection of β-galactosidase activity in cell lysate followed by ATP detection by standard luciferase based assay. […] Altogether, the procedure allowed a simultaneous quantifiable detection of senescence associated β-galactosidase (SAβG) activity and evaluation of ATP level as a sign of improved proliferative capacity or cytotoxicity. […]

Row | SMILES | genotoxic effect [1] | LD50 [2] [µM] | response of RLS to treatment [3] | colonies formation [4] | total number of cells at end of 1st part of LTC-IC assay [4] | immediate response in mitochondrial respiration rate or glycolysis efficacy [5] | number of SAβG positive cells (NHDF)
1 | O=C1/C(=N/O)C=Cc2ccccc21 [N2N1, 1-naphthoquinone-2-monoxime] | did not show any detrimental effect on DNA integrity | 15 | did not respond | promote colonies formation | always larger | could not detect any immediate | substantially decreased
2 | O=C1NC(=O)C(=NO)C(=O)N1 [VA, 2,4,5,6(1H,3H)-pyrimidine-tetrone 5-oxime] | did not show any detrimental effect on DNA integrity | 5000 | did not respond | promote colonies formation | always larger | could not detect any immediate | substantially decreased
